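Cultured in 96-well plates, cells were exposed to test compound for 48 hours across five concentrations. Abbreviation: GI50, concentration required for 50% inhibition of growth. Definition used: TGI = concentration required for complete inhibition of growth.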
Assays:
Test in all cases: NCI-60 cell line screen, 48 h
HOP-62 NSCLC = system: HOP-62 NSCLC
MDA-MB-231 breast = system: MDA-MB-231 breast
MDA-MB-435 = system: MDA-MB-435
OVCAR-3 ovarian = system: OVCAR-3 ovarian
SF-539 CNS = system: SF-539 CNS
SK-MEL-28 melanoma = system: SK-MEL-28 melanoma
U251 CNS = system: U251 CNS
HL-60(TB) leukemia = system: HL-60(TB) leukemia
MCF7 breast = system: MCF7 breast
NCI-H522 lung = system: NCI-H522 lung
K-562 leukemia = system: K-562 leukemia
NCI-H23 lung = system: NCI-H23 lung
HS 578T breast = system: HS 578T breast
PC-3 prostate = system: PC-3 prostate
BT-549 breast = system: BT-549 breast
SK-OV-3 ovarian = system: SK-OV-3 ovarian
T-47D breast = system: T-47D breast
CAKI-1 renal = system: CAKI-1 renal
NCI-H460 lung = system: NCI-H460 lung
SR leukemia = system: SR leukemia
HT29 colon = system: HT29 colon
SF-295 CNS = system: SF-295 CNS
HOP-92 NSCLC = system: HOP-92 NSCLC
NCI/ADR-RES ovarian = system: NCI/ADR-RES ovarian
TK-10 renal = system: TK-10 renal
A549 NSCLC = system: A549 NSCLC
UACC-257 melanoma = system: UACC-257 melanoma
RXF 393 renal = system: RXF 393 renal
SNB-19 CNS = system: SNB-19 CNS
786-0 renal = system: 786-0 renal
SK-MEL-5 melanoma = system: SK-MEL-5 melanoma
NCI-H226 lung = system: NCI-H226 lung
LOX IMVI melanoma = system: LOX IMVI melanoma
EKVX NSCLC = system: EKVX NSCLC
A498 renal = system: A498 renal
SNB-75 CNS = system: SNB-75 CNS
OVCAR-4 ovarian = system: OVCAR-4 ovarian
ACHN renal = system: ACHN renal
MOLT-4 leukemia = system: MOLT-4 leukemia
MALME-3M melanoma = system: MALME-3M melanoma
DU-145 prostate = system: DU-145 prostate
COLO 205 colon = system: COLO 205 colon
HCT-15 colon = system: HCT-15 colon
MDA-MB-468 breast = system: MDA-MB-468 breast
KM12 colon = system: KM12 colon
M14 melanoma = system: M14 melanoma
SN12C renal = system: SN12C renal
UO-31 renal = system: UO-31 renal
IGROV1 ovarian = system: IGROV1 ovarian
OVCAR-8 ovarian = system: OVCAR-8 ovarian
CCRF-CEM leukemia = system: CCRF-CEM leukemia
UACC-62 melanoma = system: UACC-62 melanoma
SK-MEL-2 melanoma = system: SK-MEL-2 melanoma
HCT-116 colon = system: HCT-116 colon
RPMI-8226 leukemia = system: RPMI-8226 leukemia
SF-268 CNS = system: SF-268 CNS
HCC-2998 colon = system: HCC-2998 colon
SW-620 colon = system: SW-620 colon
OVCAR-5 ovarian = system: OVCAR-5 ovarian

`CCOc1ccc(-c2cc(-c3cc(C(C)C)c(O)cc3C)nn2-c2ccc(S(N)(=O)=O)cc2)cc1` gave a GI50 (HOP-62 NSCLC) of 10.4 µM, a TGI (HOP-62 NSCLC) of 23.4 µM and a GI50 (MDA-MB-231 breast) of 6.78 µM. The TGI (MDA-MB-231 breast) was 20.3 µM, the GI50 (MDA-MB-435) was 1.91 µM and the TGI (MDA-MB-435) was 4.44 µM. The GI50 (OVCAR-3 ovarian) was 4.55 µM, the TGI (OVCAR-3 ovarian) was 15.3 µM and the GI50 (SF-539 CNS) was 5.51 µM. The TGI (SF-539 CNS) was 17.7 µM, the GI50 (SK-MEL-28 melanoma) was 11.7 µM and the TGI (SK-MEL-28 melanoma) was 24 µM. It also gave a GI50 (U251 CNS) of 5.29 µM, a TGI (U251 CNS) of 18.6 µM and a GI50 (HL-60(TB) leukemia) of 4.81 µM. For the same molecule, the TGI (HL-60(TB) leukemia) was 37.3 µM, the GI50 (MCF7 breast) was 4.88 µM and the TGI (MCF7 breast) was 19.2 µM. The GI50 (NCI-H522 lung) was 2.75 µM, the TGI (NCI-H522 lung) was 11 µM and the GI50 (K-562 leukemia) was 3.38 µM. For the same molecule, the TGI (K-562 leukemia) was over 100 µM, the GI50 (NCI-H23 lung) was 6.86 µM and the TGI (NCI-H23 lung) was 20.5 µM. For the same molecule, the GI50 (HS 578T breast) was 5.8 µM, the TGI (HS 578T breast) was 25.9 µM and the GI50 (PC-3 prostate) was 5.47 µM. The TGI (PC-3 prostate) was 19.6 µM, the GI50 (BT-549 breast) was 2.93 µM and the TGI (BT-549 breast) was 11.4 µM. The GI50 (SK-OV-3 ovarian) was 10.7 µM, the TGI (SK-OV-3 ovarian) was 22.7 µM and the GI50 (T-47D breast) was 3.71 µM. It also gave a TGI (T-47D breast) of 17 µM, a GI50 (CAKI-1 renal) of 4.92 µM and a TGI (CAKI-1 renal) of 18 µM. The GI50 (NCI-H460 lung) was 5.21 µM, the TGI (NCI-H460 lung) was 18.1 µM and the GI50 (SR leukemia) was 1.8 µM. The TGI (SR leukemia) was 43.8 µM, the GI50 (HT29 colon) was 15.4 µM and the TGI (HT29 colon) was 29.5 µM. The GI50 (SF-295 CNS) was 9.37 µM, the TGI (SF-295 CNS) was 21.3 µM and the GI50 (HOP-92 NSCLC) was 2.82 µM. For the same molecule, the TGI (HOP-92 NSCLC) was 13 µM, the GI50 (NCI/ADR-RES ovarian) was 3.15 µM and the TGI (NCI/ADR-RES ovarian) was 12.2 µM. The GI50 (TK-10 renal) was 15.6 µM, the TGI (TK-10 renal) was 29.1 µM and the GI50 (A549 NSCLC) was 4.62 µM. For the same molecule, the TGI (A549 NSCLC) was 19.2 µM, the GI50 (UACC-257 melanoma) was 10.4 µM and the TGI (UACC-257 melanoma) was 22.5 µM. The GI50 (RXF 393 renal) was 4.45 µM, the TGI (RXF 393 renal) was 17.2 µM and the GI50 (SNB-19 CNS) was 12.3 µM. The TGI (SNB-19 CNS) was 24.8 µM, the GI50 (786-0 renal) was 11.2 µM and the TGI (786-0 renal) was 23.3 µM. For the same molecule, the GI50 (SK-MEL-5 melanoma) was 5.3 µM, the TGI (SK-MEL-5 melanoma) was 17.8 µM and the GI50 (NCI-H226 lung) was 15.7 µM. The TGI (NCI-H226 lung) was 37 µM, the GI50 (LOX IMVI melanoma) was 5.65 µM and the TGI (LOX IMVI melanoma) was 18.3 µM. It also gave a GI50 (EKVX NSCLC) of 3.96 µM, a TGI (EKVX NSCLC) of 15.2 µM and a GI50 (A498 renal) of 13.4 µM. The TGI (A498 renal) was 26.4 µM, the GI50 (SNB-75 CNS) was 2.48 µM and the TGI (SNB-75 CNS) was 13 µM. It also gave a GI50 (OVCAR-4 ovarian) of 7.29 µM, a TGI (OVCAR-4 ovarian) of 21 µM and a GI50 (ACHN renal) of 10.5 µM. The TGI (ACHN renal) was 22.3 µM, the GI50 (MOLT-4 leukemia) was 4.02 µM and the TGI (MOLT-4 leukemia) was 17.6 µM. For the same molecule, the GI50 (MALME-3M melanoma) was 11 µM, the TGI (MALME-3M melanoma) was 23.4 µM and the GI50 (DU-145 prostate) was 7.07 µM. For the same molecule, the TGI (DU-145 prostate) was 19.9 µM, the GI50 (COLO 205 colon) was 17.1 µM and the TGI (COLO 205 colon) was 31.7 µM. It also gave a GI50 (HCT-15 colon) of 3.61 µM, a TGI (HCT-15 colon) of 14.4 µM and a GI50 (MDA-MB-468 breast) of 2.39 µM. The TGI (MDA-MB-468 breast) was 6.76 µM, the GI50 (KM12 colon) was 3.47 µM and the TGI (KM12 colon) was 13.4 µM. It also gave a GI50 (M14 melanoma) of 9.86 µM, a TGI (M14 melanoma) of 22.4 µM and a GI50 (SN12C renal) of 6.66 µM. The TGI (SN12C renal) was 20.1 µM, the GI50 (UO-31 renal) was 5.46 µM and the TGI (UO-31 renal) was 18.3 µM. The GI50 (IGROV1 ovarian) was 12.1 µM, the TGI (IGROV1 ovarian) was 24.9 µM and the GI50 (OVCAR-8 ovarian) was 7.24 µM. For the same molecule, the TGI (OVCAR-8 ovarian) was 21.6 µM, the GI50 (CCRF-CEM leukemia) was 2.86 µM and the TGI (CCRF-CEM leukemia) was 13.8 µM. For the same molecule, the GI50 (UACC-62 melanoma) was 7.25 µM, the TGI (UACC-62 melanoma) was 20.4 µM and the GI50 (SK-MEL-2 melanoma) was 7.28 µM. It also gave a TGI (SK-MEL-2 melanoma) of 20.8 µM, a GI50 (HCT-116 colon) of 5.46 µM and a TGI (HCT-116 colon) of 18.2 µM. The GI50 (RPMI-8226 leukemia) was 4.29 µM, the TGI (RPMI-8226 leukemia) was 22.2 µM and the GI50 (SF-268 CNS) was 7.22 µM. The TGI (SF-268 CNS) was 21.4 µM, the GI50 (HCC-2998 colon) was 3.87 µM and the TGI (HCC-2998 colon) was 12.7 µM. For the same molecule, the GI50 (SW-620 colon) was 5.94 µM, the TGI (SW-620 colon) was 20 µM and the GI50 (OVCAR-5 ovarian) was 15.7 µM. The TGI (OVCAR-5 ovarian) was 29.2 µM.

Reference: PubChem BioAssay (NCI)
